# Tests used:
# [1] = test system: glial cultures (astrocytes); format: cell-based, mouse (Swiss Webster)
# [2] = target: T1, glutaminase (brain membranes) (Rattus norvegicus, UniProt P13264); experiment: biochemical
# T1 construct: Membranes are prepared by homogenization of brain tissue in 330 mM sucrose; from tissue; host or cells: rat brain, crude membranes (17000 G pellet)
# T1 sequence (P13264 73-674 limits assumed): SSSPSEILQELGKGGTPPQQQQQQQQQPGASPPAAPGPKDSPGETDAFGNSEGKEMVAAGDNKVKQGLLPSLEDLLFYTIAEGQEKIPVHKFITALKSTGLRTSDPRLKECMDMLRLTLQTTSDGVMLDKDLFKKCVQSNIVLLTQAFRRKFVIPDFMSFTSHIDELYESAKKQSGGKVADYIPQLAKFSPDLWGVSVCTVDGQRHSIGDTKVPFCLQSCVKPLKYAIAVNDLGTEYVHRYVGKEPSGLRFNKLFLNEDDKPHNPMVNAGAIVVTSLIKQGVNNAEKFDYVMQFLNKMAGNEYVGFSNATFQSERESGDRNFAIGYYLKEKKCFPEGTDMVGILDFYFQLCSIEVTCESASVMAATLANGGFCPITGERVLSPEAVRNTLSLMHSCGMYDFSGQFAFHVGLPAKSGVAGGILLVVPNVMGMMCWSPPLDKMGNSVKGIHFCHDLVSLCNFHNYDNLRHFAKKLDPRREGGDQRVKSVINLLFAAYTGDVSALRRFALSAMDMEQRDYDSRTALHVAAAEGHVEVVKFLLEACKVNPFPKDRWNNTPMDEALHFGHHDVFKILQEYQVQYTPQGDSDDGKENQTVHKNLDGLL
# isolated neurons = conditions: Rosenberg; Dugan et al., 1995; read-out: IC50 for toxicity of glutamate on isolated neurons; cited from earlier work
# neuronal cultures = experiment: Glutamate uptake (clearance) by neuronal cultures; format: cell-based, mouse (Swiss Webster); conditions: intact neurons
# Procedure: (§1) This allows expression of medium glutamate concentrations as:
# (§2) where [Glu], in units of μM, is the concentration of glutamate in the 0.4 ml of medium in a culture well, S (in μM/min) is the rate of addition of glutamate to the culture medium from cellular sources, and k (in min^-1) is the empirically determined rate constant for clearance (Roberts). […] Although the value of k is proportional to cell (carrier) density, little variation is expected in cultures containing glia, as glial cultures are confluent.
# as §2, with “(Roberts, D. V. (1977) Enzyme Kinetics, Cambridge University Press, Cambridge, pp23-30.).” for “(Roberts).”, “glia” for “glia,”
# [3] = test system: glial cultures (astrocytes); conditions: Hertz; Drejer; read-out: Km for cellular uptake of glutamate; cited from earlier work
# [4] = test system: mixed glial-neuronal cultures; experiment: Glutamate uptake (clearance) by mixed glial-neuronal cultures; format: cell-based, mouse (Swiss Webster)
# Procedure: as §1, §2
# as §2, with “(Roberts, D. V. (1977) Enzyme Kinetics, Cambridge University Press, Cambridge, pp23-30.).” for “(Roberts).”, “glia” for “glia,”
compound,measurement,setting,value
N[C@@H](CCC(=O)O)C(=O)O [L-glutamic acid],Glutamate uptake (k),[1],0.083
same,first order rate constant for glutamate uptake,[1],0.083 min⁻¹
same,glutamate uptake rate of glial vs neuronal cultures,[1],about 7 times
same,glutaminase inhibition (in words),[2],no significant effect on enzyme activity at 3.3 mM
same,activity at 1000 µM,[2]; read-out: Glutaminase Activity,105 ± 15%
same,activity at 3300 µM,[2]; read-out: Glutaminase Activity,113 ± 32%
same,IC50,isolated neurons,5 to 10 µM
same,Glutamate uptake (k),neuronal cultures,0.012 min⁻¹
same,Km,[3],~45 µM
same,first order rate constant for glutamate uptake,[4]; 15 μM glutamate,0.072 min⁻¹
same,Glutamate uptake (k),"[4]; Table 2, glial-neuronal",0.072

# From patent US6310093A (priority 1998, dated 2001)
